Test results from publication PMC8217266 (Clinical Pharmacology and Therapeutics, 2021).

Legend:
[1] = test system: transporters at major organ sites; assay: Prediction of transporter-mediated inhibition / DDI potential; set-up: species or system human; details: of 11 transporters; FDA criteria
human OAT3 [2] = target: T1, human OAT3 (Homo sapiens, UniProt Q8TCC7); details: for Cu,max/IC50 OAT3: human
T1 sequence (Q8TCC7 1-542): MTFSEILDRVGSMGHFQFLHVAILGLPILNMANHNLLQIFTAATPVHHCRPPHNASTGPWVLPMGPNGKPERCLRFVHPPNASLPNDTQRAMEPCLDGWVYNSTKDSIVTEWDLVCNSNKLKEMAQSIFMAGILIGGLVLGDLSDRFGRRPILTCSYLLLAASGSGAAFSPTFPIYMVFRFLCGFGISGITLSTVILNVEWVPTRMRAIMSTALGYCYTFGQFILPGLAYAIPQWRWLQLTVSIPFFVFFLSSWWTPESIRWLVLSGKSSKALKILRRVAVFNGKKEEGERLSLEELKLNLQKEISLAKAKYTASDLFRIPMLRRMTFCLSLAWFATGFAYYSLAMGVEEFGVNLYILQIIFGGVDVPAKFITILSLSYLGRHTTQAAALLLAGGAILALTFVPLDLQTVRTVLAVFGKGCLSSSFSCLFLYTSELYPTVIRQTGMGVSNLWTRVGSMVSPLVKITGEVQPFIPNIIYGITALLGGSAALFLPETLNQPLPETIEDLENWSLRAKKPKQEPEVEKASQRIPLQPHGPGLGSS

human OCT1 = target: T2, human OCT1 (Homo sapiens, UniProt O15245); assay: cell-based
T2 sequence (O15245 1-554): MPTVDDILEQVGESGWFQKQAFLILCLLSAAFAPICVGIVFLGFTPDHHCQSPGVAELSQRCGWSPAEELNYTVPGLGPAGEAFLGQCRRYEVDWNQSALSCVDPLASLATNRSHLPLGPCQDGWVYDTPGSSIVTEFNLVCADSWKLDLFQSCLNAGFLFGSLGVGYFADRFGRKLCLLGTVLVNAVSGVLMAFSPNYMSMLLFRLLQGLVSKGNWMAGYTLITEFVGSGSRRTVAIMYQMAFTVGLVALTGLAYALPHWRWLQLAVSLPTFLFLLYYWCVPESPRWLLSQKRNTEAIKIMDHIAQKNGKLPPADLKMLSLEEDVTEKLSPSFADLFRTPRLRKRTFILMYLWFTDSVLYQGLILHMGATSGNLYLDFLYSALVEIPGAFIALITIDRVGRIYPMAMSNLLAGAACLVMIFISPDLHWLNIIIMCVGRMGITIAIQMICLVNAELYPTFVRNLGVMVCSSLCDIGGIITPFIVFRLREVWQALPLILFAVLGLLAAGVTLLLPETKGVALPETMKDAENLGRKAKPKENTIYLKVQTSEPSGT

human OCT2 = target: T3, human OCT2 (Homo sapiens, UniProt O15244); assay: cell-based; details: IC50 OCT2, experimental, mean ± SD; substrate metformin
T3 sequence (O15244 1-555): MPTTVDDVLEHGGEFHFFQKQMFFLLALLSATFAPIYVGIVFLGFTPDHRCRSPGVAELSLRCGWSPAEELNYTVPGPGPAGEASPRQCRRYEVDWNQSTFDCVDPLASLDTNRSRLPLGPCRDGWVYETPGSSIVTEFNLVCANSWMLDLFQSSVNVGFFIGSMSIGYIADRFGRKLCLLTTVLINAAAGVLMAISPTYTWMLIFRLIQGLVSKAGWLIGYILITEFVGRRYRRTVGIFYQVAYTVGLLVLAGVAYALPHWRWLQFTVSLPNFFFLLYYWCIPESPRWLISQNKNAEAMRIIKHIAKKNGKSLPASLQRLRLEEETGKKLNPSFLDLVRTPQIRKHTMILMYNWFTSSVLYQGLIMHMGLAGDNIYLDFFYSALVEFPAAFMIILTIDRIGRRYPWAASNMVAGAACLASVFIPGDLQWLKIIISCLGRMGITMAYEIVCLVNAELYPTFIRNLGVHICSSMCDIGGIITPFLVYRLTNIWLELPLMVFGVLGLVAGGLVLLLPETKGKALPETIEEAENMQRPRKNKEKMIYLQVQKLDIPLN

human OAT3 [3] = target: T1, human OAT3; assay: cell-based
BCRP = target: T4, BCRP (Homo sapiens, UniProt Q9UNQ0); assay: biochemical
T4 sequence (Q9UNQ0 1-655): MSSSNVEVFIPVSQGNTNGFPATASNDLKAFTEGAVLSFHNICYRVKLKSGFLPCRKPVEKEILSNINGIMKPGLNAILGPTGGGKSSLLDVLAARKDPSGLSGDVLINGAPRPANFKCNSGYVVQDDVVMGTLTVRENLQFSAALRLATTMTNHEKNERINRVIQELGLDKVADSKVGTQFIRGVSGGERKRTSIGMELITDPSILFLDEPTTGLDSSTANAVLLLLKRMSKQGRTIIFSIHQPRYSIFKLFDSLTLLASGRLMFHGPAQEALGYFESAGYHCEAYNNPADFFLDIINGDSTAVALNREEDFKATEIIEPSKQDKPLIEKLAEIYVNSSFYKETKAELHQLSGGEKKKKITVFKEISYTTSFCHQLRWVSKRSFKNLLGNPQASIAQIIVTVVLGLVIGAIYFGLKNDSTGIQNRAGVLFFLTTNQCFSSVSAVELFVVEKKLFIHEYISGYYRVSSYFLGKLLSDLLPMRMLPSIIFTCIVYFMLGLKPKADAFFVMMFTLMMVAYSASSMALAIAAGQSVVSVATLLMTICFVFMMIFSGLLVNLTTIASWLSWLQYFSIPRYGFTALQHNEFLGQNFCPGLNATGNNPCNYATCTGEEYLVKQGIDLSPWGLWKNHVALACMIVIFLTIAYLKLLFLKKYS

Row | SMILES | No. of transporters at major organ sites inhibited at clinical concentrations [1] | OAT3 inhibited more potently relative to OAT1 (human OAT3 [2]) | Cu,max/IC50 OAT3 (human OAT3 [2]) | IC50 (human OCT1) | IC50 (human OCT2) | IC50 (human OAT3 [3]) | IC50 (BCRP)
1 | CCCc1nn(C)c2c(=O)[nH]c(-c3cc(S(=O)(=O)N4CCN(C)CC4)ccc3OCC)nc12 [Sildenafil] | 4 | ≥ 10 fold | 0.002 | 19.8 ± 6.4 µM | 68 ± 20.1 µM | 20.5 ± 3.1 µM | 3.1 ± 2.5 µM
2 | CC(C)CN(C[C@@H](O)[C@H](Cc1ccccc1)NC(=O)O[C@H]1CO[C@H]2OCC[C@H]21)S(=O)(=O)c1ccc(N)cc1 [Darunavir] | 5 |  |  |  |  | 37.9 ± 9.5 µM | > 100 µM
3 | N#CC[C@H](C1CCCC1)n1cc(-c2ncnc3[nH]ccc23)cn1 [Ruxolitinib] | 1 | ≥ 10 fold | 0.005 | 9.7 ± 4.3 µM | 10.7 ± 3.7 µM | 6.1 ± 0.6 µM | > 100 µM
4 | CCC(CC)COC(=O)[C@H](C)N[P@](=O)(OC[C@H]1O[C@@](C#N)(c2ccc3c(N)ncnn23)[C@H](O)[C@@H]1O)Oc1ccccc1 [Remdesivir] | 4 |  |  | 10.1 ± 0.01 µM |  | 14 ± 1.7 µM | 25 ± 6 µM
5 | CCOC(=O)c1c(CSc2ccccc2)n(C)c2cc(Br)c(O)c(CN(C)C)c12 [Umifenovir (Arbidol), Umifenovir] | 6 |  | 0.002 | 1.2 ± 0.1 µM | 14.9 ± 4.9 µM | 58.6 ± 21.9 µM | > 100 µM
